± gives the expanded uncertainty stated by the source.
How the values were obtained:
[1] = Liquid; for mass density: 293.13 K, 101.33 kPa
[2] = refractive index (Na D-line) (dimensionless); conditions: 293.13 K; 101.33 kPa; Liquid; Standard Abbe refractometry

mass density [1] [kg/m3] | vapor or sublimation pressure ([1]; 359.51 K) [kPa] | vapor or sublimation pressure ([1]; 379.52 K) [kPa] | vapor or sublimation pressure ([1]; 392.57 K) [kPa] | vapor or sublimation pressure ([1]; 400.69 K) [kPa] | refractive index [2] | vapor or sublimation pressure ([1]; 383.1 K) [kPa] | vapor or sublimation pressure ([1]; 404.24 K) [kPa] | vapor or sublimation pressure ([1]; 417.99 K) [kPa] | vapor or sublimation pressure ([1]; 426.54 K) [kPa] | vapor or sublimation pressure ([1]; 410.86 K) [kPa] | Compound
811.2 ± 0.4 | 26.66 ± 0.27 | 53.33 ± 0.32 | 79.99 ± 0.45 | 101.32 ± 0.53 | 1.4008 ± 0.0007 |  |  |  |  |  | CCCCC(C)=O [2-hexanone]
994.1 ± 0.2 |  |  |  |  | 1.5171 ± 0.0007 | 26.66 ± 0.25 | 53.33 ± 0.3 | 79.99 ± 0.43 | 101.32 ± 0.5 |  | COc1ccccc1 [anisole]
814.5 ± 0.4 |  |  |  |  | 1.4098 ± 0.0007 |  |  |  |  | 101.32 ± 1 | CCCCCO [pentan-1-ol]

Source: the NIST ThermoML archive (doi:10.1021/je900058p)
